Legend:
B16F1 melanoma = assay: anti-tumor activity (tumor growth) in B16F1 melanoma-bearing mice; type: in vivo, C57BL/6 mice
Protocol: C57BL/6 mice (Charles River Laboratories, Calco, Italy) weighing 16-18 g were challenged with subcutaneous injection in the left flank of 5×10^4 RMA-T or B16F1 living cells; 4-12 days later, the mice were treated with TNF or NGR-TNF solutions (100 μl) followed 2 hours later by administration of melphalan or doxorubicin solution (100 μl). Unless specified, all drugs were administered intraperitoneally (i.p.). All drugs were diluted with 0.9% sodium chloride, containing 100 μg/ml endotoxin-free human serum albumin (Farma-Biagini, Lucca, Italy), except for doxorubicin, which was diluted with 0.9% sodium chloride alone. Tumor growth was monitored daily by measuring the tumors with calipers as previously described (20). Animals were sacrificed before the tumors reached 1.0-1.5 cm in diameter. Tumor sizes are shown as mean±SE (5 animals/group).
We then investigated whether targeted delivery of low doses of NGR-mTNF to tumor vessles could enhance the anti-tumor activity of chemotherapeutic drugs.

B16F1 cells = assay: 48 hour in vitro cytotoxicity assay on cultured B16F1 cells; type: cell-based, mouse
Text: To assess whether the synergism depends directly on cytotoxicity against tumor cells we measured the effect of each compound, alone or in combination, on cultured B16F1 cells.

RMA-T lymphoma = assay: anti-tumor activity (tumor growth) in RMA-T lymphoma-bearing mice; type: in vivo, C57BL/6 mice; conditions: RMA-T tumors, treatment at day 10, picogram doses

For `N[C@@H](Cc1ccc(N(CCCl)CCCl)cc1)C(=O)O` [Melphalan], the “effect on tumor growth, single agent” value (B16F1 melanoma; melphalan 90 μg, mTNF or NGR-mTNF 0.1 ng i.p.) was “unable to effect the growth of tumors” and the “killing of cultured cells” value (B16F1 cells) was “Neither melphalan or NGR-mTNF, alone or in combination, killed these cells”.

B1: NGR-TNF: TNF fused with the C-terminus of CNGRCG; human or murine form not specified at the place (Example 15 used NGR-mTNF) (protein)
chain: CNGRCGMSTESMIRDVELAEEALPQKMGGFQNSRRCLCLSLFSFLLVAGATTLFCLLNFGVIGPQRDEKFPNGLPLISSMAQTLTLRSSSQNSSDKPVAHVVANHQVEEQLEWLSQRANALLANGMDLKDNQLVVPADGLYLVYSQVLFKGQGCPDYVLLTHTVSRFAISYQEKVNLLSAVKSPCPKDTPEGAELKPWYEPIYLGGVFQLEKGDQLSAEVNLPKYLDFAESGQVYFGVIAL
With B1 the “enhancement of therapeutic effect of cisplatinum” value (RMA-T lymphoma) was “sufficient to enhance the therapeutic effect of cisplatinum” and the “dose sufficient to enhance the anti-tumor activity of melphalan and doxorubicin” value (B16F1 melanoma; systemic administration to mice) was 0.003 to 0.005 µg/kg.
